# Test results as given in publication PMC2868066 (Biochemistry, 2010).
# Peptide text beside a SMILES is read from it.
# Columns and labels:
# S. aureus ATCC 29213 = format: cell-based; details: ATCC 29213, 18 h
# E. coli K12 = format: cell-based; details: K12, 18 h
# S. aureus / E. coli = details: cited from earlier work
Molecule,MIC (S. aureus ATCC 29213) [µg/mL],MIC (E. coli K12) [µg/mL],MIC S. aureus/MIC E. coli (S. aureus / E. coli)
CC[C@H](C)[C@H](NC(=O)CN)C(=O)NCC(=O)N[C@@H](CCCCN)C(=O)N[C@@H](Cc1ccccc1)C(=O)N[C@@H](CC(C)C)C(=O)N[C@@H](CCCCN)C(=O)N[C@@H](CCCCN)C(=O)N[C@@H](C)C(=O)N[C@@H](CCCCN)C(=O)N[C@@H](CCCCN)C(=O)N[C@@H](Cc1ccccc1)C(=O)NCC(=O)N[C@@H](CCCCN)C(=O)N[C@@H](C)C(=O)N[C@@H](Cc1ccccc1)C(=O)N[C@H](C(=O)N[C@@H](CCCCN)C(=O)N[C@H](C(=O)N[C@@H](CC(C)C)C(=O)N[C@@H](CCCCN)C(=O)N[C@@H](CCCCN)C(N)=O)[C@@H](C)CC)C(C)C [MSI-78] (H-GIGKFLKKAKKFGKAFVKILKK-NH2),12.5,–,–
CC[C@H](C)[C@H](NC(=O)[C@H](CCCCN)NC(=O)CNC(=O)[C@H](C)NC(=O)[C@@H](NC(=O)[C@H](CCCCN)NC(=O)[C@H](C)NC(=O)[C@@H](NC(=O)[C@H](CCCCN)NC(=O)CNC(=O)[C@H](C)NC(=O)[C@@H](NC(=O)[C@H](CCCCN)NC(=O)[C@H](C)NC(=O)[C@@H](NC(=O)[C@H](CCCCN)NC(=O)CNC(=O)[C@H](C)NC(=O)[C@@H](NC(=O)[C@@H](N)CCCCN)[C@@H](C)CC)[C@@H](C)CC)[C@@H](C)CC)[C@@H](C)CC)[C@@H](C)CC)C(=O)N[C@@H](C)C(N)=O [MSI-103] (H-KIAGKIAKIAGKIAKIAGKIA-NH2),25,1.6,–
Cateslytin,–,–,>3
